Test results reported in US20220288004A1, “TREATMENT AND PREVENTION OF AGING RELATED-DISEASE AND/OR AGING BY THE INHIBITION OF SPHINGOLIPIDS” (ECOLE POLYTECHNIQUE FEDERALE DE LAUSANNE (EPFL), priority 2019, published 2022).
“Also recorded” adds a separate entry of the source.

How the values were obtained:
[1] = tested on: skeletal muscle of aged mice; experiment: Proteostasis (A11 staining) in skeletal muscle of aged mice; assay type: in vivo, mouse
Method: FIG. 17. […] Values are expressed as mean±s.e.m. *P≤0.05. Differences between two groups were assessed using Student's two-tailed t-tests (error bars: 95% confidence intervals).

aged C57Bl/6JRj mice [2] = experiment: Muscle function tests (treadmill, aerobic capacity, grip strength, rotarod, crossbar) in aged mice; assay type: in vivo, mouse; details: myriocin 5 months vs DMSO
Method: To examine whether a causal relationship could underlie the correlation between SphPC1 and muscle mass and function, it was tested whether inhibition of sphingolipid de novo biosynthesis pathway could protect against age-related muscle dysfunction. Aged (18-month-old) C57Bl/6JRj mice were treated for 5 months on chow diet with myriocin, a specific inhibitor of SPT, the first and rate-limiting enzyme of the sphingolipid de novo synthesis pathway, and whose expression in skeletal muscle was negatively correlated with muscular fitness in BXDs.
Animals. Young (2-month-old) and aged (18-month-old) C57Bl/6JRj mice were purchased from Janvier Labs. EchoMRI measuring the fat and lean body mass, were measured before and after the treatment. The dose of myriocin was 0.4 mg/kg/3 times a week. Myriocin (Enzo Life Sciences, Farmingdale, N.Y.) was first dissolved in DMSO which was then mixed with PBS so that each mouse received 1.5 μL DMSO per injection. Animals were fed on a standard chow diet. All animals were housed in micro-isolator cages in a room illuminated from 7:00 AM to 7:00 PM with ad libitum access to diet and water. All the animal experiments are authorized by animal license 2890.1 and 3341 in Canton of Vaud, Switzerland.
(§1) Endurance running test. The exercise regimen on a treadmill commenced at a speed of 9 cm/s. As the mice were aged, an inclination of 0 degrees was used. Mice were considered to be exhausted, and removed from the treadmill if they received 7 or more shocks (0.2 mA) per minute for two consecutive minutes. The distance traveled and time before exhaustion were registered as maximal running distance and time.
(§2) Grip strength. Muscle strength was assessed by grip strength test. The grip strength of each mouse was measured on a pulldown grid assembly connected to a grip strength meter (Columbus Instruments). The mouse was drawn along a straight line parallel to the grip, providing peak force. The experiment was repeated three times, and the highest value was included in the analysis.
(§3) Rotarod test. The rotarod test measures muscle strength, coordination, and endurance. Mice were left undisturbed in the room for 30 min. The speed of the rotating cylinder (rotarod) increased from 0 to 40 rpm in 5 min. Each mouse had 3 trials per day for 3 consecutive days. The latency and speed the mouse reached it passive rotation or fall from the rotor was recorded, and the latency and speed of the best trial of the second day is presented.
Crossbar test. Crossbar test assesses active balance through the ability to balance while walking along an elevated beam to reach a dark end side where they are able hide. Since all the mice were easily able to cross a squared (3 cm) beam, and a circular beam of diameter 1.5 cm was too difficult to them, the latency was recorded to cross a circular beam of 3 cm. The mice were trained for one day before the actual trial was recorded, and the average of the latency of three trials per mouse is presented.

[3] = tested on: APPSwe-expressing C2C12 myoblasts; experiment: Proteostat staining of APPSwe-expressing C2C12 myoblasts; assay type: cell-based, mouse; details: 30 μM MYR for 24 h
Method: FIG. 16. Quantitative Proteostat signal normalized over the number of cells in human primary myoblasts from IBM donors (above) and APPSwe-expressing C2C12 myoblasts (below) decreases after treatment with 30 μM MYR for 24 h. Values are expressed as mean±s.e.m. ***P:0.001; ****P:0.0001. Differences between two groups were assessed using Student's two-tailed t-tests (error bars: 95% confidence intervals).

aged C57Bl/6JRj mice [4] = experiment: Transplantation of MuSCs from myriocin treated donors into cardiotoxin-injured aged C57Bl/6JRj recipients; assay type: in vivo, mouse
Text: Decline in tissue regenerative potential is a major hallmark of mammalian aging, including skeletal muscle. It was next asked the question whether myriocin treatment induces functional improvement of MuSCs, boosting their regenerative capacity. MuSCs from aged mice treated or untreated with myriocin for 5 months were isolated, and transplanted into tibialis anterior (TA) muscles of recipient mice. The recipient mice were either aged (20-month-old) C57Bl/6JRj or aged (1-year-old) mdx mice, a mouse model of Duchenne muscular dystrophy lacking dystrophin protein (FIG. 4a). Before MuSC transplantation, injury was induced by cardiotoxin injection to TA of all recipient mice. […] At both 7 and 14 days after transplantation the inflammatory area was also smaller (FIG. 12a-b) in mdx recipients of MuSCs isolated from myriocin treated mice. […] Thus, transplantation of MuSCs derived from myriocin treated donors induce major morphological improvements following cardiotoxin-induced muscle injury.
To test whether the functional improvement of MuSCs upon myriocin treatment also translates into better muscle function of recipient mice, tests of muscle function were performed before and 7 days after MuSC transplantation.
as §1, §2, §3
Cardiotoxin-induced muscle damage and MuSC transplantation. MuSCs were transplanted from donor mice to recipient mice. The donor mice were aged male C57Bl/6JRj mice, whose treatment with myriocin was started at the age of 18 months. The recipient mice were either aged (18-month-old) male C57Bl/6JRj mice or 1-year-old male mdx mice. 50 μL of 20 μM Naje Mossambica mossambica cardiotoxin (Sigma) was injected intramuscularly into the tibialis anterior (TA) muscle of recipient mice before transplantation. 24 h after CTX injection, equal number (1500) of freshly isolated MuSCs from donor mice were injected intramuscularly into the TA muscle. Recipient mice were sacrificed at 7 and 14 days after transplantation.
Histology. TA muscles were harvested from anesthetized mice, and immediately embedded in Thermo Scientific™ Shandon™ Cryomatrix™ and frozen in isopentane, cooled in liquid nitrogen, for 1 min before being transferred to dry ice and stored at −80° C. 8 μm cryosections were incubated in 4% PFA for 15 min, washed three times for 10 min with PBS, incubated for antigen retrieval in pH 6.0 citrate buffer for 10 min at 95° C. (for PAX7 antibody), counterstained with DAPI, laminin (1:200, Sigma), PAX7 (1:200, DSHB, University of Iowa), dystrophin (1:100, Spring Bioscience) or eMyHC (1:50, DSHB, University of Iowa), coupled with Alexa-488 or Alexa-568 fluorochromes (Life Technology) and mounted with Dako Mounting Medium. Microscopy images of fluorescence from muscle fibers were analyzed using the ImageJ software. […]

[5] = aged C57Bl/6JRj recipients of MuSCs from myriocin treated donors, 7 days
[6] = aged recipients of MuSCs from myriocin treated mice, 7 days after transplantation, change relative to baseline

CCCCCCC(=O)CCCCCCC=CCC(O)C(O)C(N)(CO)C(=O)O (stereo not drawn) [myriocin, 2-Amino-3,4-dihydroxy-2-(hydroxymethyl)-14-oxoicos-6-enoic acid]
proteostasis in skeletal muscle ([1]; aged mice treated with myriocin): improves proteostasis; also recorded: promoted proteostasis
amyloid beta aggregates (A11 staining) ([1]; skeletal muscle of aged mice treated with myriocin): cleared amyloid beta aggregates
aerobic capacity (maximal oxygen consumption) (aged C57Bl/6JRj mice [2]): improved; also recorded: increased
crossing of a beam (aged C57Bl/6JRj mice [2]): faster crossing
grip strength (aged C57Bl/6JRj mice [2]): improved; also recorded: increased
performance in the rotarod test (aged C57Bl/6JRj mice [2]): improved performance
running distance and time on a treadmill (aged C57Bl/6JRj mice [2]): increased; also recorded: improved performance
speed reached before falling off the rotarod (aged C57Bl/6JRj mice [2]): higher speed
Proteostat signal normalized over the number of cells [3]: decreases
inflammatory area of TA (aged C57Bl/6JRj mice [4]; aged C57Bl/6JRj recipients of MuSCs from myriocin treated donors, 7 and 14 days after injury): smaller
count of PAX7+ cells per field and per section (aged C57Bl/6JRj mice [4]; [5]): increased count
embryonic myosin heavy chain (eMyHC) positive area (aged C57Bl/6JRj mice [4]; [5]): higher
exercise capacity (maximal running distance) (aged C57Bl/6JRj mice [4]; [6]): improved
grip strength (aged C57Bl/6JRj mice [4]; [6]): improved
latency in rotarod test (aged C57Bl/6JRj mice [4]; [6]): increased latency
